Experimental data published in ChEMBL document CHEMBL1150308, “Cytotoxic constituents from Brazilian red propolis and their structure-activity relationship” (Bioorg Med Chem, 2008).

What was measured:
Format in all cases: functional, cell-based
HeLa = experiment: Cytotoxicity against human HeLa cells after 72 hrs by MTT assay
[1] = Cytotoxicity against mouse LLC cells after 72 hrs by MTT assay; settings: Lewis lung carcinoma
[2] = Cytotoxicity against mouse colon 26-L5 cells after 72 hrs by MTT assay
A549 = experiment: Cytotoxicity against human A549 cells after 72 hrs by MTT assay; settings: A549, 72 h
HT-1080 = experiment: Cytotoxicity against human HT1080 cells after 72 hrs by MTT assay; settings: HT-1080, 72 h
[3] = Cytotoxicity against mouse B16-BL6 cells after 72 hrs by MTT assay; settings: B16-BL6, 72 h

COc1ccc([C@H]2COc3cc(O)ccc3C2)c(O)c1
IC50 (HeLa): 72.6 µM
IC50 [1]: 92.3 µM
IC50 [2]: 67 µM
IC50 (A549): > 100 µM
IC50 (HT-1080): > 100 µM
IC50 [3]: 57.4 µM

COc1ccc(-c2coc3cc(O)cc(O)c3c2=O)c(O)c1
IC50 (HeLa): > 100 µM
IC50 [1]: > 100 µM
IC50 [2]: 93.6 µM
IC50 (A549): > 100 µM
IC50 (HT-1080): > 100 µM
IC50 [3]: > 100 µM

COc1c(O)cc2c(c1O)C(=O)C[C@@H](c1ccccc1)O2 [DIHYDROOROXYLIN A]
IC50 (HeLa): 39.3 µM
IC50 [1]: 82.7 µM
IC50 [2]: 49 µM
IC50 (A549): 38 µM
IC50 (HT-1080): 47.6 µM
IC50 [3]: 72.6 µM

CCO[C@@]12COc3cc(O)ccc3[C@@H]1Oc1cc(OC)ccc12
IC50 (HeLa): > 100 µM
IC50 [1]: > 100 µM
IC50 [2]: > 100 µM
IC50 (A549): > 100 µM
IC50 (HT-1080): > 100 µM
IC50 [3]: > 100 µM

COc1ccc([C@H]2COc3cc(O)ccc3C2=O)c(O)c1
IC50 (HeLa): > 100 µM
IC50 [1]: > 100 µM
IC50 [2]: 67 µM
IC50 (A549): > 100 µM
IC50 (HT-1080): > 100 µM
IC50 [3]: > 100 µM

O=C1C[C@@H](c2ccccc2)Oc2cc(O)c(O)c(O)c21
IC50 (HeLa): > 100 µM
IC50 [1]: > 100 µM
IC50 [2]: 53.4 µM
IC50 (A549): > 100 µM
IC50 (HT-1080): > 100 µM
IC50 [3]: > 100 µM

O=C1c2ccc(O)cc2OC1(O)Cc1ccc(O)cc1 (stereo unspecified)
IC50 (HeLa): > 100 µM
IC50 [1]: > 100 µM
IC50 [2]: 25.9 µM
IC50 (A549): > 100 µM
IC50 (HT-1080): > 100 µM
IC50 [3]: > 100 µM

COc1cc(O)ccc1C(=O)/C=C/c1ccc(O)cc1
IC50 (HeLa): 67.9 µM
IC50 [1]: 69.1 µM
IC50 [2]: 12.3 µM
IC50 (A549): 62.1 µM
IC50 (HT-1080): 51.2 µM
IC50 [3]: 56.3 µM

COc1cc(O)ccc1[C@H]1COc2cc(O)ccc2C1
IC50 (HeLa): 77.1 µM
IC50 [1]: > 100 µM
IC50 [2]: 49.8 µM
IC50 (A549): > 100 µM
IC50 (HT-1080): 75.3 µM
IC50 [3]: 33.6 µM

COc1cccc2c1C(=O)c1c(O)c3c(c(O)c1C2=O)C[C@@](O)(C(=O)CO)C[C@@H]3O[C@H]1C[C@H](N)[C@H](O)[C@H](C)O1 [DOXORUBICIN]
IC50 (HeLa): 0.68 µM
IC50 [1]: 8.04 µM
IC50 [2]: 0.33 µM
IC50 (A549): 7.88 µM
IC50 (HT-1080): 9.32 µM
IC50 [3]: 8.05 µM

COc1cc2c(cc1O)O[C@H](c1ccccc1)[C@@H](O)C2=O
IC50 (HeLa): > 100 µM
IC50 [1]: > 100 µM
IC50 [2]: > 100 µM
IC50 (A549): > 100 µM
IC50 (HT-1080): > 100 µM
IC50 [3]: > 100 µM

COc1cc2c(cc1OC)[C@@H]1COc3cc(O)ccc3[C@@H]1O2 [SECUNDIFLOROL I]
IC50 (HeLa): 84.3 µM
IC50 [1]: > 100 µM
IC50 [2]: 44.5 µM
IC50 (A549): > 100 µM
IC50 (HT-1080): > 100 µM
IC50 [3]: 64.9 µM

O=C1C[C@@H](c2ccc(O)cc2)Oc2cc(O)ccc21 [LIQUIRTIGENIN]
IC50 (HeLa): > 100 µM
IC50 [1]: > 100 µM
IC50 [2]: 56.6 µM
IC50 (A549): > 100 µM
IC50 (HT-1080): > 100 µM
IC50 [3]: 97.7 µM

COc1ccc([C@H]2COc3cc(OC)ccc3C2)c(O)c1
IC50 (HeLa): 44.3 µM
IC50 [1]: 24 µM
IC50 [2]: 29.8 µM
IC50 (A549): 46 µM
IC50 (HT-1080): 50.1 µM
IC50 [3]: 24.1 µM

COc1ccc(-c2coc3cc(O)cc(O)c3c2=O)cc1 [BIOCHANIN]
IC50 (HeLa): > 100 µM
IC50 [1]: > 100 µM
IC50 [2]: 98 µM
IC50 (A549): > 100 µM
IC50 (HT-1080): > 100 µM
IC50 [3]: > 100 µM

COc1ccc2c(c1)O[C@H]1c3ccc(O)c(OC)c3OC[C@@H]21
IC50 (HeLa): 47.1 µM
IC50 [1]: 97.6 µM
IC50 [2]: 29.4 µM
IC50 (A549): 97.3 µM
IC50 (HT-1080): 96.3 µM
IC50 [3]: > 100 µM

O=C1C[C@@H](c2ccc(O)cc2)Oc2cc(O)cc(O)c21 [NARINGENIN]
IC50 (HeLa): > 100 µM
IC50 [1]: > 100 µM
IC50 [2]: > 100 µM
IC50 (A549): > 100 µM
IC50 (HT-1080): > 100 µM
IC50 [3]: > 100 µM

C=C[C@@H](c1ccccc1)c1cc(O)c(OC)cc1OC
IC50 (HeLa): 60.1 µM
IC50 [1]: > 100 µM
IC50 [2]: 60.3 µM
IC50 (A549): 73.7 µM
IC50 (HT-1080): > 100 µM
IC50 [3]: 53.8 µM

O=C1c2ccc(O)cc2O[C@H](c2ccccc2)[C@H]1O
IC50 (HeLa): > 100 µM
IC50 [1]: > 100 µM
IC50 [2]: > 100 µM
IC50 (A549): > 100 µM
IC50 (HT-1080): > 100 µM
IC50 [3]: > 100 µM

O=C(c1ccc(O)cc1O)[C@@H](O)Cc1ccc(O)cc1
IC50 (HeLa): > 100 µM
IC50 [1]: > 100 µM
IC50 [2]: > 100 µM
IC50 (A549): > 100 µM
IC50 (HT-1080): > 100 µM
IC50 [3]: > 100 µM

O=C(/C=C/c1ccc(O)cc1)c1ccc(O)cc1O [ISOLIQUIRITIGENIN]
IC50 (HeLa): 82.6 µM
IC50 [1]: 84 µM
IC50 [2]: 21.8 µM
IC50 (A549): 98.9 µM
IC50 (HT-1080): 76.7 µM
IC50 [3]: 80.5 µM
